This note sets out measurements from patent US9873693B2 (Sunesis Pharmaceuticals, Inc., priority 2006, dated 2018).

A value given as a limit tells only on which side of the number the result lay.

The target of test [1] is phosphorylated PDK1 (Homo sapiens (Human), UniProt O15530). The test can be described thus: PDK1 kinase assay (coupled PDK1/AKT/FAM-crosstide, IMAP). The test is classed as biochemical. To be noted: 0.5 nM phosphorylated PDK1, 24 μM ATP; read-out: Inhibition of phospo-PDK1 in vitro IC50.
phosphorylated PDK1, sequence (O15530 51-360): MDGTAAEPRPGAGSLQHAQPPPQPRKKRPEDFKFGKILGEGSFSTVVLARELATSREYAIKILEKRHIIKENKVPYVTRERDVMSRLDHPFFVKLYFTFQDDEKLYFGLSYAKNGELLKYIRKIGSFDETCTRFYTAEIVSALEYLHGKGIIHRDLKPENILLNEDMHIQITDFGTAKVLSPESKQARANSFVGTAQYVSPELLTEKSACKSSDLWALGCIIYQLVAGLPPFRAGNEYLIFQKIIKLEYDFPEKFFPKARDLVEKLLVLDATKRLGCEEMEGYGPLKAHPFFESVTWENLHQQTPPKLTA
The target of test [2] is dephosphorylated PDK1 (Homo sapiens (Human), UniProt O15530). The description is as above. Conditions: 25 nM un-phosphorylated PDK1, 24 μM ATP; read-out: Inhibition of dephospo-PDK1 in vitro IC50. The test is classed as biochemical. The gist of the method: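 Coupled cascade using 25 nM dephosphorylated PDK1 (aa 51–360, lambda-phosphatase treated, MS-verified), 30 nM unphosphorylated GST-AKT2 (aa 140–467)-PIFtide and 100 nM FAM-crosstide in Tris pH 7.2, 10 mM MgCl2, 1 mM DTT. ATP was 24 μM, with 30 min at 25 °C. Product was read by IMAP fluorescence polarization, and ΔmP against concentration was fitted with a 4-parameter model.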
dephosphorylated PDK1, sequence (O15530 51-360): as above

The subject of test [3] is phospho-akt (Thr308). As to the kind of experiment: phospho-akt (Thr308) MSD ELISA in PC-3 cells. The test is classed as cell-based. Conditions: Homo sapiens, PC-3, 2 h, PC-3 cells, 2 hours, no serum; read-out: Inhibition of P308 Akt in cells using MSD EC50. The gist of the method:
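PC-3 cells plated overnight in 10% FBS medium, then treated with three-fold serial compound dilutions in serum-free medium; DMSO-only wells as high control. Lysates captured on BSA-blocked MSD plates overnight at 4 degrees, detection antibody 1 hr RT, electrochemiluminescence read on MSD reader.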
Background: ELISA stands for enzyme-linked immunosorbent assay.

For `O=C(NCc1nc(-c2c[nH]c3ncccc23)cs1)c1cccn(Cc2ccc(F)c(F)c2)c1=O` [Cpd 112], the IC50 in test [1] and in test [2] was below 500 nM in each case. For the same compound, the concentration giving a half-maximal response (EC50) (as a rule, the concentration at which the effect is half-maximal) in test [3] is below 1000 nM.
